Experimental data reported in BindingDB's records for doi:10.1016/j.ejmech.2017.05.035 (Universidade Estadual De Feira De Santana, 2017).

Assay: Antagonist activity at Adenosine receptor subtype 2B in human RBC assessed as change in erythrocyte morphology incubated for 3 hrs with occasional gentle stirring for every 30 min measured for every 12 hrs by microscopic analysis

Row | Ki [µM] | EC50 [µM] | Structure (SMILES)
1 | 0.0018 | – | Cc1ccc(N2CCN(C(=O)[C@H](C)Oc3ccc(-c4cc5c([nH]4)c(=O)n(C)c(=O)n5C)cc3)CC2)cc1
2 | – | 0.035 | Cc1cc(NC(=O)CNc2ccc3c(c2)OC(F)(F)O3)on1
3 | – | 0.035 | CC(C)c1noc(OCC(=O)NCc2ccc3c(c2)OCO3)n1
4 | 0.0013 | – | C[C@H](Oc1ccc(-c2cc3c([nH]2)c(=O)n(C)c(=O)n3C)cc1)C(=O)Nc1ccc(Br)cc1
5 | – | 0.023 | CCCc1cc(O)nc(SC(C)C(=O)Nc2cc(C)no2)n1 (stereo not drawn)
6 | – | 0.017 | O=C(CN1CCOC(Cn2cncn2)C1)Nc1cccnc1 (stereo not drawn)
7 | 0.001 | – | CCCn1c(=O)n(C)c(=O)c2[nH]c(-c3ccc(O[C@@H](C)C(=O)N4CCN(c5nc6ccc(Cl)cc6s5)CC4)cc3)cc21
8 | – | 0.047 | CC(OC(=O)c1nccnc1N)C(=O)NCc1ccc2c(c1)OCO2 (stereo not drawn)
